Structures can show the parent of a compound that is named as a salt.
Key:
Assay type in all cases: physicochemical
[1] = Solid state (thermolytic) stability of TBR-760 salt forms, open container, UPLC peak purity and appearance; conditions: for Purity, T = 2 wk / Purity, T = 4 wk / Purity, Control: UPLC peak purity; for Purity, Control / Appearance, Control: stored at -20° C.
Procedure: Each TBR-760 salt was further evaluated for thermolytic stability over time by setting up three different exposure conditions (25° C. at 60% relative humidity (RH); 40° C. at 75% RH; or 60° C. with open and closed container systems (open dish/closed dish). Approximately 50 mg of each salt form was weighed in a nitrogen-flushed glove box for use in the studies. All samples were stored at −20° C. in a good laboratory practice (GLP) freezer both before and after exposure to the indicated conditions.
The stability of each salt form was assessed by monitoring the post-exposure drug peak purity and by evaluating the post-exposure visual appearance of the salt. The samples were removed from the exposure conditions and allowed to equilibrate to ambient conditions for 15-20 mins. An appropriate amount of each sample was weighed for analysis and dissolved in diluent (deionized water containing 0.1% TFA) to obtain a stock concentration of 1 mg/mL. The stock solution was then diluted to 0.125 mg/mL in an HPLC vial using diluent and the samples were run on a Waters Acquity UPLC system using the parameters shown in Table 4.

[2] = Photostability of TBR-760 salt forms (ICH Q1B, visible and UV light), appearance and UPLC purity; conditions: for Purity, UV-exposed / Purity, Control / Purity, Dark Ctrl-UV / Purity, Dark Crtl-Light / Purity, Light-exposed / degradation upon exposure to visible or UV light, in words: UPLC; for Purity, UV-exposed / Appearance, UV-exposed: UV 200 watt hours/square meter; for Purity, UV-exposed / Purity, Light-exposed / Appearance, UV-exposed / Appearance, Light-exposed: clear sealed vial; for Purity, Control / Appearance, Control: control in sealed amber vial at -20° C.; for Purity, Dark Ctrl-UV / Appearance, Dark Ctrl-UV: dark control in UV chamber; for Purity, Dark Crtl-Light / Appearance, Dark Crtl-Light: dark control in visible light chamber; for Appearance, Dark Ctrl-UV / Appearance, Dark Crtl-Light: amber vial wrapped in aluminum foil; for degradation upon exposure to visible or UV light, in words: visible and UV light
From the text: In order to evaluate the light sensitivity and stability of TBR-760 chimeric peptide salts, all five salt forms were exposed to ultraviolet (UV) and visible light according to International Council for Harmonisation of Technical Requirements for Pharmaceuticals for Human Use (ICH) guideline Q1B for photostability testing. In brief, a Caron 6540-1 photostability chamber unit with separate UV and light chambers was used for the studies. Visible light exposure was 1.2 million lux hours and UV exposure was 200 watt hours/square meter.
Samples were placed in clear, sealed vials and stored in the appropriate chamber alongside dark controls in amber colored vials wrapped in aluminum foil. Control samples were stored in sealed amber vials at −20° C. The appearance of exposed samples was examined visually before being analyzed via UPLC.

[3] = Thermogravimetric analysis (TGA) of TBR-760 salt forms; conditions: ramp 5.0° C. per minute from 25 to 400° C.
Procedure: Thermogravimetric analyses (TGA) were performed on all TBR-760 salt forms to evaluate thermal stability of each salt form. Studies were performed using a TGA-Q500 thermogravimetric analyzer (TA Instruments). The weight of each compound was measured while the temperature was increased at a ramp rate of 5.0° C. per minute from 25 to 400° C. […] The weight loss may be indicative of loss of adsorbed moisture, entrained solvent or volatile impurities. Decomposition of the compound appears to start at about 234° C. (sulfate salt), 245° C. (chloride salt), 252° C. (tosylate salt), and 255° C. (mesylate salt). For the acetate salt, a further ˜5% loss of weight between 110° C. and 200° C. was observed, indicating loss of volatile acetate ions over that temperature range (FIG. 8).

[4] = 25° C. at 60% RH, open container
[5] = 40° C. at 75% RH, open container
[6] = visible light 1.2 million lux hours, listed as Sulphate
[7] = visible light 1.2 million lux hours

Structure (SMILES) | Appearance, T = 2 wk [1, 4] | Appearance, T = 4 wk [1, 4] | Appearance, T = 3 d [1, 4] | Appearance, T = 2 wk [1, 5] | Appearance, T = 4 wk [1, 5] | Appearance, T = 3 d [1, 5] | Appearance, T = 2 wk ([1]; 60° C., open dish) | Appearance, T = 4 wk ([1]; 60° C., open dish) | Appearance, T = 3 d ([1]; 60° C., open dish) | Purity, T = 2 wk [1, 4] | Purity, T = 4 wk [1, 4] | Purity, T = 2 wk [1, 5] | Purity, T = 4 wk [1, 5] | Purity, T = 2 wk ([1]; 60° C., open dish) | Purity, T = 4 wk ([1]; 60° C., open dish) | Purity, Control [1] | Appearance, Control [1] | Appearance, Control [2] | Appearance, Dark Ctrl-UV [2] | Appearance, Dark Crtl-Light [2] | further results
CCCN1C[C@H](CSCC(=O)NCCCC[C@@H](NC(=O)CSC[C@@H]2C[C@@H]3c4cccc5[nH]cc(c45)C[C@H]3N(CCC)C2)C(=O)N[C@H]2CSSC[C@@H](C(=O)N[C@H](C(N)=O)[C@@H](C)O)NC(=O)[C@H](CC)NC(=O)[C@H](CCCCN)NC(=O)[C@@H](Cc3c[nH]c4ccccc34)NC(=O)[C@H](Cc3ccc(O)cc3)NC2=O)C[C@@H]2c3cccc4[nH]cc(c34)C[C@H]21 [TBR-760 sulfate, Dop2-D-Lys(Dop2)-cyclo[Cys-Tyr-D-Trp-Lys-Abu-Cys]-Thr-NH2] | White | White | White | White | White | White | White | White | White | 97.34 | 97.75 | 97.08 | 97.3 | 93.7 | 92.01 | 98.04 | White | white | white | white | additional degradants in chromatogram versus control ([1]; two weeks at 60° C., open dish, UPLC, listed as sulfate salt): more than 10; Purity, UV-exposed ([2]; listed as Sulphate): 96.24; Purity, Control ([2]; listed as Sulphate): 98.04; Purity, Dark Ctrl-UV ([2]; listed as Sulphate): 98.17; Purity, Dark Crtl-Light ([2]; listed as Sulphate): 98.19; Purity, Light-exposed [2, 6]: 94.82; Appearance, UV-exposed [2]: white to off-white; Appearance, UV-exposed ([2]; listed as Sulphate): off-white; degradation upon exposure to visible or UV light, in words [2]: more resistant to degradation than TBR-760 acetate; Appearance, Light-exposed [2, 7]: no visible discoloration; Appearance, Light-exposed [2, 6]: white; TGA start of decomposition ([3]; listed as sulfate salt): about 234 °C
CCCN1C[C@H](CSCC(=O)NCCCC[C@@H](NC(=O)CSC[C@@H]2C[C@@H]3c4cccc5[nH]cc(c45)C[C@H]3N(CCC)C2)C(=O)N[C@H]2CSSC[C@@H](C(=O)N[C@H](C(N)=O)[C@@H](C)O)NC(=O)[C@H](CC)NC(=O)[C@H](CCCCN)NC(=O)[C@@H](Cc3c[nH]c4ccccc34)NC(=O)[C@H](Cc3ccc(O)cc3)NC2=O)C[C@@H]2c3cccc4[nH]cc(c34)C[C@H]21 [TBR-760 tosylate, Dop2-D-Lys(Dop2)-cyclo[Cys-Tyr-D-Trp-Lys-Abu-Cys]-Thr-NH2] | White | White | White | White | White | White | White | White | White | 98.01 | 97.39 | 97.57 | 96.93 | 96.86 | 96.52 | 98.39 | White | white | white | white | Purity, UV-exposed [2]: 95.67; Purity, Control [2]: 98.39; Purity, Dark Ctrl-UV [2]: 98.27; Purity, Dark Crtl-Light [2]: 98.27; Purity, Light-exposed [2, 7]: 96.3; Appearance, UV-exposed ([2]; listed as Tosylate): off-white; Appearance, UV-exposed ([2]; listed as tosylate): white to off-white; degradation upon exposure to visible or UV light, in words [2]: more resistant to degradation than TBR-760 acetate; stability following light exposure, in words [2, 7]: significantly more stable than the TBR-760 acetate salt; Appearance, Light-exposed ([2]; visible light 1.2 million lux hours, listed as Tosylate): off-white; Appearance, Light-exposed ([2]; visible light 1.2 million lux hours, listed as tosylate): white to off-white; TGA start of decomposition ([3]; listed as tosylate salt): ~252 °C

— patent publication US20210338782A1, “STORAGE STABLE SOMATOSTATIN-DOPAMINE CHIMERIC COMPOUNDS AND SALT FORMS THEREOF” (Cydan II, Inc., priority 2019, published 2021)
